The text below walks through data of patent publication US11730720B2, “ALK5 inhibitors” (THERAVANCE BIOPHARMA R&D IP, LLC, priority 2018, dated 2023).

Assay [1] relates to TGF-β-stimulated SMAD3 phosphorylation in BEAS-2B cells. The assay is described as follows: Cellular ALK5 potency assay, inhibition of TGF-β stimulated pSMAD3 formation in BEAS-2B cells. The class given is cell-based. The conditions noted are these: Homo sapiens, inhibition of TGF-β (10 ng/mL) stimulated pSMAD3 formation, 1 hour compound incubation, read-out: BEAS2B pIC50 (converted). In outline: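 Phospho-SMAD3 was quantified by AlphaLISA in lysates of human lung epithelial BEAS-2B cells. Compound was added 1 h (37 °C, HEPES/BSA-supplemented HBSS) before a 30 min challenge with 10 ng/mL TGF-β. Values are pIC50 relative to stimulated cells without compound.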

For assay [2], the target named is T1, recombinant human ALK5 (TGF-βR1) protein (Homo sapiens, UniProt P36897).
T1 construct: purchased Life Technologies PR9075A
T1 sequence (P36897 34-503): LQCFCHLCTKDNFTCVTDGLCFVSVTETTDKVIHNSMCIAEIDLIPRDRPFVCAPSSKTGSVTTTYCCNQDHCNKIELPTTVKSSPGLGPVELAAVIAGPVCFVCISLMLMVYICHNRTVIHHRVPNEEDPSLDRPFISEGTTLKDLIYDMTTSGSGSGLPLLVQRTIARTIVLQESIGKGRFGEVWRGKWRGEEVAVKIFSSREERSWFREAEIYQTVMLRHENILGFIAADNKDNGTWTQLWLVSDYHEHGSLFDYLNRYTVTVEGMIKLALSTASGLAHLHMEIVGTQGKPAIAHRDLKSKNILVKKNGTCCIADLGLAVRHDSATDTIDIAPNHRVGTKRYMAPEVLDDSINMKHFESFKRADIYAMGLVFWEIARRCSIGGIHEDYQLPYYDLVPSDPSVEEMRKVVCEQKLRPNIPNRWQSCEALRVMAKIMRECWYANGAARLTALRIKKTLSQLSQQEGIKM
The assay is described as follows: Biochemical ALK5 (TGF-βR1) assay to measure pKi (LANCE Ultra ULight kinase assay). The conditions noted are these: apparent pKi, converted from pIC50 using the Cheng-Prusoff equation. An outline of the steps: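 TR-FRET kinase format: compound dose range 10 μM–25 pM equilibrated 60 min with human ALK5 and ULight-labelled topoisomerase 2α peptide in HEPES/MgCl2 buffer pH 7.5 with DTT. Reaction started with ATP (125 μM stock, 5× final), 60 min at 37° C, stopped with EDTA/Eu-anti-phospho antibody; pKi derived from pIC50 via Cheng-Prusoff.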
For orientation: TR-FRET usually uses a lanthanide donor and a delayed reading to cut background.

pKi: −log10 of the molar value.

Usually pKi stands for the negative decadic logarithm of the Ki, by convention in mol/L. For the compound `CNC(=O)[C@H]1CN(c2cnc3ccc(-c4c[nH]nc4-c4cc(Cl)c(F)cc4F)nc3c2)CCN1C(C)C` [Compound 6-38, (2R)-4-[6-[3-(5-chloro-2,4-difluoro-phenyl)-1H-pyrazol-4-yl]-1,5-naphthyridin-3-yl]-1-isopropyl-N-methyl-piperazine-2-carboxamide], the IC50 in assay [1] was 25.1 to 158 nM. Besides, the pKi in assay [2] is 9.50 to 10.40.
The matching figures for `CC(C)NCCN1CCN(c2cnc3ccc(-c4c[nH]nc4-c4cc(Cl)c(F)cc4F)nc3c2)CC1` [Compound 6-39, N-[2-[4-[6-[3-(5-chloro-2,4-difluoro-phenyl)-1H-pyrazol-4-yl]-1,5-naphthyridin-3-yl]piperazin-1-yl]ethyl]propan-2-amine]: 25.1 to 158 nM and 9.50 to 10.40.
The matching figures for `CNCCn1ccc(-c2cnc3ccc(-c4c[nH]nc4-c4cc(Cl)c(F)cc4F)nc3c2)n1` [Compound 6-40, 2-(3-(6-(3-(5-chloro-2,4-difluorophenyl)-1H-pyrazol-4-yl)-1,5-naphthyridin-3-yl)-1H-pyrazol-1-yl)-N-methylethan-1-amine]: at most 20 nM and at least 10.50.
In the same order, the values of `NCCn1cc(-c2cnc3ccc(-c4c[nH]nc4-c4cc(Cl)c(F)cc4F)nc3c2)cn1` [Compound 6-41, 2-[4-[6-[3-(5-chloro-2,4-difluoro-phenyl)-1H-pyrazol-4-yl]-1,5-naphthyridin-3-yl]pyrazol-1-yl]ethanamine] are 25.1 to 158 nM and at least 10.50.
In the case of `Fc1cc(F)c(-c2n[nH]cc2-c2ccc3ncc(-c4cnn(CC5CNC5)c4)cc3n2)cc1Cl` [Compound 6-42, 7-[1-(azetidin-3-ylmethyl)pyrazol-4-yl]-2-[3-(5-chloro-2,4-difluoro-phenyl)-1H-pyrazol-4-yl]-1,5-naphthyridine], in assay [1], the IC50 is 25.1 to 158 nM. Further, in assay [2], the negative-log Ki (pKi) is 9.50 to 10.40.
Turning to `CN1CC=C(c2cnc3ccc(-c4c[nH]nc4-c4cc(Cl)c(F)cc4F)nc3c2)C1` [Compound 6-43, 2-(3-(5-chloro-2,4-difluorophenyl)-1H-pyrazol-4-yl)-7-(1-methyl-2,5-dihydro-1H-pyrrol-3-yl)-1,5-naphthyridine], the IC50 in assay [1] is at most 20 nM. For the same compound, the pKi in assay [2] is 9.50 to 10.40.
The matching figures for `CC(C)N1CC=C(c2cnc3ccc(-c4c[nH]nc4-c4cc(Cl)c(F)cc4F)nc3c2)C1` [Compound 6-44, 2-[3-(5-chloro-2,4-difluoro-phenyl)-1H-pyrazol-4-yl]-7-(1-isopropyl-2,5-dihydropyrrol-3-yl)-1,5-naphthyridine]: at most 20 nM and 9.50 to 10.40.
In the same order, the values of `Fc1cc(F)c(-c2n[nH]cc2-c2ccc3ncc(-c4cnn5c4CNCC5)cc3n2)cc1Cl` [Compound 6-45, 2-(3-(5-chloro-2,4-difluorophenyl)-1H-pyrazol-4-yl)-7-(4,5,6,7-tetrahydropyrazolo[1,5-a]pyrazin-3-yl)-1,5-naphthyridine] are 25.1 to 158 nM and 9.50 to 10.40.
In the same order, the values of `Fc1cc(F)c(-c2n[nH]cc2-c2ccc3ncc(-c4nc5n(n4)CCNC5)cc3n2)cc1Cl` [Compound 6-46, 2-[3-(5-chloro-2,4-difluoro-phenyl)-1H-pyrazol-4-yl]-7-(5,6,7,8-tetrahydro-[1,2,4]triazolo[1,5-a]pyrazin-2-yl)-1,5-naphthyridine] are 25.1 to 158 nM and 9.50 to 10.40.
For the compound `Fc1cc(F)c(-c2n[nH]cc2-c2ccc3ncc(-c4nnn5c4NCCC5)cc3n2)cc1Cl` [Compound 6-47, 2-[3-(5-chloro-2,4-difluoro-phenyl)-1H-pyrazol-4-yl]-7-(4,5,6,7-tetrahydrotriazolo[1,5-a]pyrimidin-3-yl)-1,5-naphthyridine], the IC50 in assay [1] is 25.1 to 158 nM. In addition, in assay [2], the negative-log Ki (pKi) was 8.50 to 9.40.
Take `Fc1cc(F)c(-c2n[nH]cc2-c2ccc3ncc(-c4cnc5n4CCNC5)cc3n2)cc1Cl` [Compound 6-48, 2-[3-(5-chloro-2,4-difluoro-phenyl)-1H-pyrazol-4-yl]-7-(5,6,7,8-tetrahydroimidazo[1,2-a]pyrazin-3-yl)-1,5-naphthyridine]: in assay [1], the IC50 was 25.1 to 158 nM. For the same compound, the negative logarithm of the Ki (pKi) in assay [2] was 8.50 to 9.40.
The matching figures for `Fc1cc(F)c(-c2n[nH]cc2-c2ccc3ncc(-c4ncn5c4CNCC5)cc3n2)cc1Cl` [Compound 6-49, 2-[3-(5-chloro-2,4-difluoro-phenyl)-1H-pyrazol-4-yl]-7-(5,6,7,8-tetrahydroimidazo[1,5-a]pyrazin-1-yl)-1,5-naphthyridine]: 25.1 to 158 nM and 9.50 to 10.40.
The matching figures for `Fc1cc(F)c(-c2n[nH]cc2-c2ccc3ncc(-c4nc(C(F)(F)F)n5c4CNCC5)cc3n2)cc1Cl` [Compound 6-50, 2-[3-(5-chloro-2,4-difluoro-phenyl)-1H-pyrazol-4-yl]-7-[3-(trifluoromethyl)-5,6,7,8-tetrahydroimidazo[1,5-a]pyrazin-1-yl]-1,5-naphthyridine]: 25.1 to 158 nM and 7.50 to 8.40.
As to `Fc1cc(F)c(-c2n[nH]cc2-c2ccc3ncc(-c4ncc5n4CCNC5)cc3n2)cc1Cl` [Compound 6-51, 2-[3-(5-chloro-2,4-difluoro-phenyl)-1H-pyrazol-4-yl]-7-(5,6,7,8-tetrahydroimidazo[1,5-a]pyrazin-3-yl)-1,5-naphthyridine], the IC50 in assay [1] was 25.1 to 158 nM. Also, the negative-log Ki (pKi) in assay [2] is 8.50 to 9.40.
For the compound `Fc1cc(F)c(-c2n[nH]cc2-c2ccc3ncc(-c4cn5c(n4)CNCC5)cc3n2)cc1Cl` [Compound 6-52, 2-[3-(5-chloro-2,4-difluoro-phenyl)-1H-pyrazol-4-yl]-7-(5,6,7,8-tetrahydroimidazo[1,2-a]pyrazin-2-yl)-1,5-naphthyridine], the IC50 in assay [1] was 25.1 to 158 nM. Besides, in assay [2], the pKi was 9.50 to 10.40.
The matching figures for `Fc1cc(F)c(-c2n[nH]cc2-c2ccc3ncc(-c4[nH]nc5c4CCNC5)cc3n2)cc1Cl` [Compound 6-53, 2-[3-(5-chloro-2,4-difluoro-phenyl)-1H-pyrazol-4-yl]-7-(4,5,6,7-tetrahydro-2H-pyrazolo[3,4-c]pyridin-3-yl)-1,5-naphthyridine]: 25.1 to 158 nM and 9.50 to 10.40.
For the compound `Fc1cc(F)c(-c2n[nH]cc2-c2ccc3ncc(-c4cnc5n4CCN5)cc3n2)cc1Cl` [Compound 6-54, 2-[3-(5-chloro-2,4-difluoro-phenyl)-1H-pyrazol-4-yl]-7-(6,7-dihydro-5H-imidazo[1,2-a]imidazol-3-yl)-1,5-naphthyridine], the IC50 in assay [1] is 25.1 to 158 nM. The negative-log Ki (pKi) in assay [2] is 9.50 to 10.40.
The matching figures for `Fc1cc(F)c(-c2n[nH]cc2-c2ccc3ncc(-c4ncn5c4NCC5)cc3n2)cc1Cl` [Compound 6-55, 2-[3-(5-chloro-2,4-difluoro-phenyl)-1H-pyrazol-4-yl]-7-(2,3-dihydro-1H-imidazo[1,5-a]imidazol-7-yl)-1,5-naphthyridine]: 25.1 to 158 nM and 9.50 to 10.40.
The matching figures for `Fc1cc(F)c(-c2n[nH]cc2-c2ccc3ncc(-c4cc5n(n4)CCNC5)cc3n2)cc1Cl` [Compound 6-56, 2-[3-(5-chloro-2,4-difluoro-phenyl)-1H-pyrazol-4-yl]-7-(4,5,6,7-tetrahydropyrazolo[1,5-a]pyrazin-2-yl)-1,5-naphthyridine]: 25.1 to 158 nM and 9.50 to 10.40.
As for `Fc1cc(F)c(-c2n[nH]cc2-c2ccc3ncc(-c4nnn5c4CNCC5)cc3n2)cc1Cl` [Compound 6-57, 2-[3-(5-chloro-2,4-difluoro-phenyl)-1H-pyrazol-4-yl]-7-(4,5,6,7-tetrahydrotriazolo[1,5-a]pyrazin-3-yl)-1,5-naphthyridine], in assay [1], the IC50 was 25.1 to 158 nM. Moreover, the pKi in assay [2] is 8.50 to 9.40.
Turning to `Fc1cc(F)c(-c2n[nH]cc2-c2ccc3ncc(-c4nnn5c4NCC5)cc3n2)cc1Cl` [Compound 6-58, 2-[3-(5-chloro-2,4-difluoro-phenyl)-1H-pyrazol-4-yl]-7-(5,6-dihydro-4H-imidazo[1,2-c]triazol-3-yl)-1,5-naphthyridine], in assay [1], the IC50 was 25.1 to 158 nM. Also, the pKi in assay [2] is 9.50 to 10.40.
In the same order, the values of `Fc1cc(F)c(-c2n[nH]cc2-c2ccc3ncc(-c4[nH]nc5c4CCN5)cc3n2)cc1Cl` [Compound 6-59, 2-[3-(5-chloro-2,4-difluoro-phenyl)-1H-pyrazol-4-yl]-7-(2,4,5,6-tetrahydropyrrolo[2,3-c]pyrazol-3-yl)-1,5-naphthyridine] are 25.1 to 158 nM and 9.50 to 10.40.
In the same order, the values of `Fc1cc(F)c(-c2n[nH]cc2-c2ccc3ncc(-c4cnc5n4CCCN5)cc3n2)cc1Cl` [Compound 6-60, 2-[3-(5-chloro-2,4-difluoro-phenyl)-1H-pyrazol-4-yl]-7-(5,6,7,8-tetrahydroimidazo[1,2-a]pyrimidin-3-yl)-1,5-naphthyridine] are 25.1 to 158 nM and 8.50 to 9.40.
